Assay results as given in patent US9371317B2, “Sweet flavor modifier” (SENOMYX, INC., priority 2013, dated 2016).

Tests used:
human panelists [1] = test: Sweetness threshold: paired comparison taste test, LSB+compound at pH 7.1 vs. 1% sucrose; type: in vivo; details: 25 ppm compound in LSB
Protocol: (§1) Test samples containing experimental compounds are presented in pairs to the panelist and they are asked to determine which of the sample is sweeter. […] A group of 10 to 16 or more panelists participated in each test. Subjects refrained from eating or drinking (except water) for at least 1 hour prior to the test. Subjects rinsed with water several times to clean the mouth.
(§2) Taste tests were performed with sucrose or HFCS as the sweetener in the presence or absence of compound. A 0.2% stock solution of compound in water with sodium bicarbonate was prepared and then this stock solution was diluted in the final sample to achieve the targeted final concentration of compound. Taste samples were also prepared in a low sodium phosphate buffer (pH 7.1; “LSB”) lacking sucrose or HFCS to evaluate the taste of the compound alone. Low sodium phosphate buffer consists of 0.3 mM KCl, 0.5 mM Na2HPO4, and 0.175 mM KH2PO4. Sample volumes are usually 20 ml.
(§3) In one paired comparison test, the panelist is presented with two different samples and asked to identify the sample which is sweeter. The samples within a paired comparison test are presented in a randomized, counterbalanced order. Panelists have up to a 1 minute delay between taste tests to clear the mouth of any tastes. […]

human panelists [2] = test: Enhancement of sucrose at pH 7.1: paired comparison taste test, 6% sucrose+compound vs. 10%, 11% or 12% sucrose; type: in vivo; details: 10 ppm compound in 6% sucrose
Protocol: as §1, §2, §3

human panelists [3] = test: Enhancement of sucrose at pH 2.8: paired comparison taste test, 6% sucrose+compound vs. 10%, 11% or 12% sucrose; type: in vivo
Protocol: as §1, §2, §3

human panelists [4] = test: Enhancement of HFCS at pH 2.8: paired comparison taste test, 6% HFCS+compound vs. 8% or 9% HFCS; type: in vivo; details: 20 ppm compound in 6% HFCS
Protocol: as §1, §2, §3

melting point [°C]	Structure (SMILES)	Sweetness of compound alone vs. 1% sucrose (human panelists [1])	Sucrose equivalence of 6% sucrose + compound (human panelists [2])	Sucrose equivalence of 6% sucrose + compound (human panelists [3]; 5 ppm compound in 6% sucrose)	Sucrose equivalence of 6% sucrose + compound (human panelists [3]; 10 ppm compound in 6% sucrose)	HFCS equivalence of 6% HFCS + compound (human panelists [4])
235 to 238	CC(C)(COc1cccc2c1C(N)=NS(=O)(=O)N2)NC(=O)c1ccncc1 [Compound A1, N-(1-(4-amino-2,2-dioxide-1H-benzo[c][1,2,6]thiadiazin-5-yloxy)-2-methylpropan-2-yl)isonicotinamide]	25 ppm equivalent to 1% sucrose	10 ppm in 6% sucrose is equivalent to 10% sucrose	5 ppm in 6% sucrose is equivalent to 11% sucrose	10 ppm in 6% sucrose is equivalent to 12% sucrose	20 ppm in 6% HFCS is equivalent to 9% HFCS
> 250	NC1=NS(=O)(=O)Nc2cccc(OCC3(NC(=O)c4ccncc4)CCCC3)c21 [Example 9, N-(1-(((4-amino-2,2-dioxido-1H-benzo[c][1,2,6]thiadiazin-5-yl)oxy)methyl)cyclopentyl)isonicotinamide]	–	–	–	–	–
238 to 240	Cc1cc(C(=O)NC(C)(C)COc2cccc3c2C(N)=NS(=O)(=O)N3)ccn1 [Example 2, N-(1-((4-amino-2,2-dioxide-1H-benzo[c][1,2,6]thiadiazin-5-yl)oxy)-2-methylpropan-2-yl)-2-methylisonicotinamide]	–	–	–	–	–
